Data as given in paper PMC7907166, “AOA-2 Derivatives as Outer Membrane Protein A Inhibitors for Treatment of Gram-Negative Bacilli Infections” (Frontiers in Microbiology, 2021).
Positions of bridges follow the written chain, without caps; N, C: chain ends. Non-standard residues stand in square brackets, D forms with d. Residues, ends and D or L forms follow the SMILES beside them. *: point of attachment. X1 = CC[C@H](C)CCCCC(=O)*; Dab = NCC[C@H](N)C(=O)O

What was measured:
[1] = system: A. baumannii ATCC 17978; assay type: cell-based; conditions: microdilution, two independent experiments; for MIC of colistin in presence of peptide: peptide added at 125 μg/mL
Experimental: The minimal inhibitory concentration (MIC) of colistin in absence and presence of RW01 or RW06 at […] for A. baumannii ATCC 17978 strain was determined by microdilution assay in two independent experiments as previously reported ([Parra-Millán et al., 2018]).

[2] = system: OmpA-deficient mutant A. baumannii, JPAB01; assay type: cell-based; conditions: for MIC of colistin in presence of peptide: peptide added at 125 μg/mL, did not change the activity
[3] = system: E. coli ATCC 25922; assay: Bacterial adhesion assay to A549 cells; assay type: cell-based; conditions: for adherence of E. coli to A549 cells reduced to: bacteria pre-incubated with peptide 250 μg/mL 30 min, MOI 500, 2 h, CFU count; for adherence of ATCC 25922 to host cells compared with AOA-2: peptide 125, 62.5 and 31.25 μg/mL, Figure 2B; for adherence of ATCC 25922 strain to A549 cells (in words): peptide 250 μg/mL, 30 min, Figure 2A
Experimental: (§1) The human pneumocyte cell line type II A549, derived from a human lung carcinoma, obtained from the American Type Culture Collection was used and cultured in DMEM medium (Invitrogen, Spain) supplemented with 10% of heat-inactivated fetal bovine serum, 50 μg/mL vancomycin (Laboratorios Normon, Spain), 20 μg/mL gentamicin (Normon Laboratories, Spain), 0.25 μg/mL amphotericin B mL (Invitrogen, Spain) and 1% HEPES (Invitrogen, Spain) in a humidified incubator, 5% CO2 at 37°C. Routine passage of A549 cells was performed every 3–4 days. Cells were seeded 24 h in 96-well plates (Sarstedt, Germany) for the cell viability assay, and in 24-well plates (Sarstedt, Germany) for the bacterial adhesion assays.
(§2) A. baumannii ATCC 17978, P. aeruginosa PAO1 and E. coli ATCC 25922 strains were incubated with AOA-2 (31.25, 62.5, 125, and 250 μg/mL, 30 min), AOA-2 derivatives RW01, RW02, RW03, RW06, RW07, RW08, RW09, RW10, RW11, and RW13 (250 μg/mL, 30 min), or AOA-2 derivatives RW01, RW02, RW03, RW06 (31.25, 62.5, and 125 μg/mL, 30 min), and added at 10^8 CFU/mL, corresponding to a multiplicity of infection (MOI) of 500, to the A549 cells for 2 h at 5% CO2 and 37°C. Subsequently, infected A549 cells were washed five times with prewarmed PBS 1X and lysed with 0.5% Triton X-100. Serial dilutions of these lysates were made and plated on blood agar plates (Blood-Agar Columbia, Becton Dickinson Microbiology Systems, United States) and incubated at 37°C for 24 h for colony counting and then determination of CFU/mL that attached to A549 cells.

[4] = system: P. aeruginosa PAO1; assay: Bacterial adhesion assay to A549 cells; assay type: cell-based; conditions: for adherence of P. aeruginosa to A549 cells reduced to: bacteria pre-incubated with peptide 250 μg/mL 30 min, MOI 500, 2 h, CFU count; for adherence of PAO1 strain to A549 cells compared with AOA-2: peptide 125, 62.5 and 31.25 μg/mL, some statistical differences, Figure 2B; for adherence of PAO1 strain to A549 cells (in words): peptide 250 μg/mL, 30 min, Figure 2A
Experimental: as §1, §2

[5] = system: A. baumannii ATCC 17978; assay: Bacterial adhesion assay to A549 cells; assay type: cell-based; conditions: for adherence of A. baumannii to A549 cells reduced to: bacteria pre-incubated with peptide 250 μg/mL 30 min, MOI 500, 2 h, CFU count; for adherence of ATCC 17978 to A549 cells compared with AOA-2: peptide 125, 62.5 and 31.25 μg/mL, except RW06 at 31.25 μg/mL, Figure 2B
Experimental: as §1, §2

[6] = system: E. coli ATCC 25922; assay: Bacterial cytotoxicity: viability of infected A549 cells (MTT); assay type: cell-based; conditions: for cell viability of infected A549 cells with respect to untreated strain: ATCC 25922 pretreated with peptide 125, 62.5 and 31.25 μg/mL, 24 h infection
Experimental: (§3) A549 cells were incubated with the peptide derivatives RW01, RW02, RW03, RW06, RW07, RW08, RW09, RW10, RW11, and RW13 (0, 3.5, 7, 15, 35, 62, 125, 250, and 500 μg/mL) for 24 h with 5% CO2 at 37°C. Prior the evaluation of the peptides cytotoxicity, A549 cells were washed three times with prewarmed PBS 1X. Subsequently, quantitative cytotoxicity was evaluated by measuring the mitochondrial reduction activity using the 3-(4,5-dimethylthiazol-2-yl)-2,5-diphenyltetrazolium bromide (MTT) assay as described previously ([Smani et al., 2013]). The percentage of […] was calculated from the absorbance at 570 nm as follow: [(Absorbance 570 nm of treated cells/Absorbance 570 nm mean of untreated cells) × 100].
(§4) A549 cells were infected with 10^8 CFU/mL, corresponding to a MOI of 500, of A. baumannii ATCC 17978, P. aeruginosa PAO1 and E. coli ATCC 25922 strains pretreated with AOA-2 or AOA-2 derivatives RW01, RW02, RW03, and RW06 (31.25, 62.5, and 125 μg/mL, 30 min) for 24 h with 5% CO2 at 37°C. Prior to the evaluation of bacterial cytotoxicity, viable bacteria are first removed from A549 cell culture by washing these A549 cells five times with PBS 1X. Subsequently, cell viability was evaluated as described above.

[7] = system: P. aeruginosa PAO1; assay: as above; assay type: cell-based; conditions: 24 h infection
Experimental: as §3, §4

[8] = system: A. baumannii ATCC 17978; assay: as above; assay type: cell-based; conditions: for cell viability of infected A549 cells with respect to untreated strain: 24 h infection
Experimental: as §3, §4

[9] = system: A. baumannii; parameters: method as in Parra-Millán et al., 2018; conditions: ref Parra-Millán et al., 2018; cited from earlier work
From the text: Therefore, we thought it would be interesting to examine the capacity of RW01 and RW06 to potentiate the activity of colistin against A. baumannii ATCC 17978 strain.

[10] = system: A. baumannii, P. aeruginosa, and E. coli; conditions: in vivo administration, ref Vila-Farrés et al., 2017, cited from earlier work
From the text: This study focuses on the paradigm of interference in pathogenesis, that is, disarming pathogenic bacteria by neutralizing their virulence factors ([Dickey et al., 2017]).

[11] = system: A549 cells; parameters: method as in Vila-Farrés et al., 2017; conditions: cited from earlier work
[12] = system: colistin-resistant A. baumannii; conditions: ref Parra-Millán et al., 2018; cited from earlier work
From the text: The therapeutic efficacy of these […] should also be further evaluated in combination with antimicrobial agents used in the clinical setting.

[13] = ATCC 17978 pretreated with peptide 125 μg/mL only

CC[C@H](C)CCCCC(=O)N[C@@H](CCN)C(=O)N[C@H](C(=O)N[C@@H](CCN)C(=O)N[C@H]1CCNC(=O)[C@H]([C@@H](C)O)NC(=O)[C@H](CCN)NC(=O)[C@H](CCN)NC(=O)[C@H](CC(C)C)NC(=O)[C@@H](CC(C)C)NC(=O)[C@H](CCN)NC1=O)[C@@H](C)O [colistin, reference compound] (X1-[Dab]T[Dab][Dab][Dab][dL]L[Dab][Dab]T; lactam 4-C (inferred); N-terminus assumed)
MIC of colistin ([1]; colistin alone): 0.5 µg/mL
MIC of colistin ([2]; colistin alone, microdilution): 0.0625 µg/mL

&2Nal-D-Pro-Arg-2Nal-D-Pro-Arg& (head to tail) [RW03, AOA-2 derivative with tryptophan analog 2Nal]
adherence of E. coli to A549 cells reduced to [3]: 29.62%
adherence of ATCC 25922 to host cells compared with AOA-2 [3]: reduced with some statistical differences
adherence of P. aeruginosa to A549 cells reduced to [4]: 20.71%
adherence of PAO1 strain to A549 cells compared with AOA-2 [4]: reduced better
adherence of A. baumannii to A549 cells reduced to [5]: 55.47%

&2Nal-D-Pro-Arg-3Pal-D-Pro-Arg& (head to tail) [RW11]
adherence of PAO1 strain to A549 cells (in words) [4]: reduced

&3Pal-D-Pro-Arg-3Pal-D-Pro-Arg& (head to tail) [RW02, AOA-2 derivative with tryptophan analog 3Pal]
adherence of E. coli to A549 cells reduced to [3]: 61.11%
adherence of P. aeruginosa to A549 cells reduced to [4]: 42.51%
adherence of PAO1 strain to A549 cells compared with AOA-2 [4]: reduced better
adherence of A. baumannii to A549 cells reduced to [5]: 43.58%

&3Pal-D-Pro-Arg-Trp-D-Pro-Tyr& (head to tail) [RW13]
adherence of ATCC 25922 strain to A549 cells (in words) [3]: reduced
adherence of PAO1 strain to A549 cells (in words) [4]: reduced

&Arg-D-Pro-Trp-Trp-D-Pro-Arg& (head to tail) [RW08]
adherence of PAO1 strain to A549 cells (in words) [4]: reduced
adherence of ATCC 17978 strain to A549 cells (in words) ([5]; peptide 250 μg/mL, 30 min, Figure 2A): reduced

&Trp-(NH2) D-Pro-Arg-Trp-D-Pro-Arg& (head to tail) [RW01, AOA-2 derivative, solubility enhanced by the addition of NH2 group]
MIC of colistin in presence of peptide [1]: 0.015 µg/mL
MIC of colistin in presence of peptide [2]: 0.0625 µg/mL
adherence of E. coli to A549 cells reduced to [3]: 66.66%
adherence of ATCC 25922 to host cells compared with AOA-2 [3]: reduced with some statistical differences
adherence of P. aeruginosa to A549 cells reduced to [4]: 40.08%
adherence of PAO1 strain to A549 cells compared with AOA-2 [4]: reduced better
adherence of A. baumannii to A549 cells reduced to [5]: 26.18%
adherence of ATCC 17978 to A549 cells compared with AOA-2 [5]: reduced non-statistically
cell viability of infected A549 cells with respect to untreated strain [6]: increased significantly
protection from cell death caused by ATCC 25922 compared with AOA-2 ([6]; peptide 62.5 and 31.25 μg/mL): more protective
cell viability of infected A549 cells with respect to untreated strain ([7]; PAO1 pretreated with peptide 125 and 62.5 μg/mL (31.25 μg/mL excepted)): increased significantly
cell viability of infected A549 cells with respect to untreated strain [8, 13]: increased significantly

&Trp-D-Pro-Arg-Trp-D-Pro-Arg& (head to tail) [AOA-2]
synergy with colistin [9]: synergize with colistin
mice mortality ([10]; especially in A. baumannii): significant decrease
bacterial load in tissues [10]: large decrease
toxicity in human lung epithelial cells [11]: did not show toxicity
adherence of E. coli to A549 cells reduced to [3]: 65.05%
adherence of P. aeruginosa to A549 cells reduced to [4]: 84.47%
adherence of A. baumannii to A549 cells reduced to [5]: 36.62%
therapeutic efficacy when combined with colistin [12]: good therapeutic efficacy
cell viability of infected A549 cells with respect to untreated strain [6]: did not increase significantly
cell viability of infected A549 cells with respect to untreated strain ([7]; PAO1 pretreated with peptide 125, 62.5 and 31.25 μg/mL): did not increase significantly
cell viability of infected A549 cells with respect to untreated strain ([8]; ATCC 17978 pretreated with peptide 125, 62.5 and 31.25 μg/mL, 30 min): did not increase significantly

&Trp-D-Pro-Dab-Trp-D-Pro-Dab& (head to tail) [RW06, AOA-2 derivative with arginine analog Dab]
MIC of colistin in presence of peptide [1]: 0.015 µg/mL
MIC of colistin in presence of peptide [2]: 0.0625 µg/mL
adherence of E. coli to A549 cells reduced to [3]: 44.44%
adherence of ATCC 25922 to host cells compared with AOA-2 [3]: reduced with some statistical differences
adherence of P. aeruginosa to A549 cells reduced to [4]: 31.14%
adherence of PAO1 strain to A549 cells compared with AOA-2 [4]: reduced better
adherence of A. baumannii to A549 cells reduced to [5]: 32.83%
adherence of ATCC 17978 to A549 cells compared with AOA-2 [5]: reduced non-statistically
cell viability of infected A549 cells with respect to untreated strain [6]: did not increase significantly
cell viability of infected A549 cells with respect to untreated strain ([7]; PAO1 pretreated with peptide 62.5 and 31.25 μg/mL (125 μg/mL excepted)): did not increase significantly
cell viability of infected A549 cells with respect to untreated strain [8, 13]: increased significantly
protection from cell death caused by ATCC 17978 compared with AOA-2 ([8]; peptide 62.5 μg/mL): protected more significantly

&Trp-D-Pro-Lys-Trp-D-Pro-Lys& (head to tail) [RW07, AOA-2 derivative with arginine analog lysine]
adherence of ATCC 25922 strain to A549 cells (in words) [3]: reduced
adherence of PAO1 strain to A549 cells (in words) [4]: reduced

&Trp-D-Pro-Trp-Arg-D-Pro-Arg& (head to tail) [RW09]
adherence of PAO1 strain to A549 cells (in words) [4]: reduced

&Tyr-D-Pro-Ala-Tyr-D-Pro-Ala& (head to tail) [RW10]
adherence of PAO1 strain to A549 cells (in words) [4]: reduced
